Measurements reported in patent publication US20230192700A1, “PYRAZOLOPYRAZINES ACTING ON CANCERS VIA INHIBITION OF CDK12” (Bayer Aktiengesellschaft, priority 2020, published 2023).

target: T1, CDK2/CyclinE (Homo sapiens, UniProt P24941); assay: CDK2/CycE kinase assay (TR-FRET); assay type: biochemical; conditions: 2 mM ATP (high ATP); median; read-out: CDK2/CyclinE, 2 mM ATP (high ATP) IC50 - [mol/l] (median)
T1 construct: GST; purchased ProQinase GmbH (Freiburg, Germany); host or cells: insect cells (Sf9)
Excerpt: 2.4 CDK2/CycE Kinase Assay
CDK2/CycE-inhibitory activity of compounds of the present invention was quantified employing the CDK2/CycE TR-FRET assay as described in the following paragraphs.
Recombinant fusion proteins of GST and human CDK2 and of GST and human CycE, expressed in insect cells (Sf9) and purified by Glutathion-Sepharose affinity chromatography, were purchased from ProQinase GmbH (Freiburg, Germany). As substrate for the kinase reaction biotinylated peptide biotin-Ttds-YISPLKSPYKISEG (C-terminus in amid form) was used which can be purchased e.g. form the company JERINI peptide technologies (Berlin, Germany).
For the assay 50 nanoL of a 100 fold concentrated solution of the test compound in DMSO was pipetted into a black low volume 384 well microtiter plate or a black 1536 well microtiter plate (both Greiner Bio-One, Frickenhausen, Germany), 2 microL of a solution of CDK2/CycE in aqueous assay buffer [50 millimol/L Tris/HCl pH 8.0, 10 millimol/L MgCl2, 1.0 millimol/L dithiothreitol, 0.1 millimol/L sodium ortho-vanadate, 0.01% (v/v) Nonidet-P40 (Sigma)] were added and the mixture was incubated for 15 min at 22° C. to allow pre-binding of the test compounds to the enzyme before the start of the kinase reaction. Then the kinase reaction was started by the addition of 3 microL of a solution of adenosine-tri-phosphate (ATP, 3.33 millimol/L=>final conc. in the 5 microL assay volume is 2 millimol/L) and substrate (1.25 micromol/L=>final conc. in the 5 microL assay volume is 0.75 micromol/L) in assay buffer and the resulting mixture was incubated for a reaction time of 25 min at 22° C. The concentration of CDK2/CycE was adjusted depending of the activity of the enzyme lot and was chosen appropriate to have the assay in the linear range, typical concentrations were in the range of 10 ng/mL. The reaction was stopped by the addition of 3 microL of a solution of TR-FRET detection reagents (0.333 micromol/L streptavidine-XL665 [Cisbio Bioassays, Codolet, France] and 1.67 nanomol/L anti-RB(pSer807/pSer811)-antibody from BD Pharmingen [#558389] and 2 nanomol/L LANCE EU-W1024 labeled anti-mouse IgG antibody [Perkin-Elmer, product no. AD0077, as an alternative a Terbium-cryptate-labeled anti-mouse IgG antibody from Cisbio Bioassays can be used]) in an aqueous EDTA-solution (167 millimol/L EDTA, 0.2% (w/v) bovine serum albumin in 100 millimol/L HEPES pH 7.5).
The resulting mixture was incubated 1 h at 22° C. to allow the formation of complex between the phosphorylated biotinylated peptide and the detection reagents. Subsequently the amount of phosphorylated substrate was evaluated by measurement of the resonance energy transfer from the Eu-chelate to the streptavidine-XL. Therefore, the fluorescence emissions at 620 nm and 665 nm after excitation at 350 nm was measured in a TR-FRET reader, e.g. a Pherastar (BMG Labtechnologies, Offenburg, Germany) or a Viewlux (Perkin-Elmer). The ratio of the emissions at 665 nm and at […] was taken as the measure for the amount of phosphorylated substrate. The data were normalised (enzyme reaction without inhibitor=0% inhibition, all other assay components but no enzyme=100% inhibition).

Row | Compound | IC50 [µM]
1 | CN1CCC(n2nc(NCc3nc4cc(Cl)ccc4[nH]3)c3ncc(C4CC4)nc32)CC1 [Example 22, N-[(5-chloro-1H-benzimidazol-2-yl)methyl]-6-cyclopropyl-1-(1-methylpiperidin-4-yl)-1H-pyrazolo[3,4-b]pyrazin-3-amine] | > 20
2 | CN1CCC(n2nc(NCc3nc4ccccc4[nH]3)c3ncc(C4CC4)nc32)C1 (single isomer, unassigned) [Example 78, (+) or (−)-N-[(1H-benzimidazol-2-yl)methyl]-6-cyclopropyl-1-(1-methylpyrrolidin-3-yl)-1H-pyrazolo[3,4-b]pyrazin-3-amine] | > 20
3 | OCCCn1nc(NCc2nc3ccccc3[nH]2)c2ncc(C3CC3)nc21 [Example 60, 3-(3-{[(1H-benzimidazol-2-yl)methyl]amino}-6-cyclopropyl-1H-pyrazolo[3,4-b]pyrazin-1-yl)propan-1-ol] | > 20
4 | CC(C)(C)OC(=O)N1CCC(n2nc(NCc3nc4ccccc4[nH]3)c3ncc(C4CC4)nc32)CC1 [Example 11, tert-butyl 4-(3-{[(1H-benzimidazol-2-yl)methyl]amino}-6-cyclopropyl-1H-pyrazolo[3,4-b]pyrazin-1-yl)piperidine-1-carboxylate] | > 20
5 | FC1(F)CCC(n2nc(NCc3nc4ccccc4[nH]3)c3ncc(C4CC4)nc32)CC1 [Example 36, N-[(1H-benzimidazol-2-yl)methyl]-6-cyclopropyl-1-(4,4-difluorocyclohexyl)-1H-pyrazolo[3,4-b]pyrazin-3-amine] | > 20
6 | CN1CCC(n2nc(NCc3nc4cc(Cl)c(F)cc4[nH]3)c3ncc(C4CC4)nc32)CC1 [Example 29, N-[(5-chloro-6-fluoro-1H-benzimidazol-2-yl)methyl]-6-cyclopropyl-1-(1-methylpiperidin-4-yl)-1H-pyrazolo[3,4-b]pyrazin-3-amine] | > 20
7 | CN1CCCC(n2nc(NCc3nc4ccccc4[nH]3)c3ncc(C4CC4)nc32)CC1 (racemic) [Example 34, (±)-N-[(1H-benzimidazol-2-yl)methyl]-6-cyclopropyl-1-(1-methylazepan-4-yl)-1H-pyrazolo[3,4-b]pyrazin-3-amine] | > 20
8 | CN1CCC(n2nc(NCc3nc4ccccc4[nH]3)c3ncc(C4CC4)nc32)C1 (racemic) [Example 35, (±)-N-[(1H-benzimidazol-2-yl)methyl]-6-cyclopropyl-1-(1-methylpyrrolidin-3-yl)-1H-pyrazolo[3,4-b]pyrazin-3-amine] | > 20
9 | CN1CCCC(n2nc(NCc3nc4ccccc4[nH]3)c3ncc(C4CC4)nc32)CC1 (single isomer, unassigned) [Example 38, (−) or (+)-N-[(1H-benzimidazol-2-yl)methyl]-6-cyclopropyl-1-[(4R*)-1-methylazepan-4-yl]-1H-pyrazolo[3,4-b]pyrazin-3-amine] | > 20
10 | c1ccc2[nH]c(CNc3nn(C4CCOC4)c4nc(C5CC5)cnc34)nc2c1 (single isomer, unassigned) [Example 18, (-) or (+) -N-[(1H-benzimidazol-2-yl)methyl]-6-cyclopropyl-1-[oxolan-3-yl]-1H-pyrazolo[3,4-b]pyrazin-3-amine] | > 20
11 | CC(CCN(C)C)n1nc(NCc2nc3ccccc3[nH]2)c2ncc(C3CC3)nc21 (single isomer, unassigned) [Example 64, (−) or(+)-N-[(1H-benzimidazol-2-yl)methyl]-6-cyclopropyl-1-[4-(dimethylamino)butan-2-yl]-1H-pyrazolo[3,4-b]pyrazin-3-amine] | > 20
12 | Cc1ccc2[nH]c(CNc3nn(C4CCN(C)CC4)c4nc(C5CC5)cnc34)nc2c1C [Example 28, 6-cyclopropyl-N-[(4,5-dimethyl-1H-benzimidazol-2-yl)methyl]-1-(1-methylpiperidin-4-yl)-1H-pyrazolo[3,4-b]pyrazin-3-amine] | > 20
13 | CN1CCC(n2nc(NCc3nc4c(Br)cccc4[nH]3)c3ncc(C4CC4)nc32)CC1 [Example 20, N-[(4-bromo-1H-benzimidazol-2-yl)methyl]-6-cyclopropyl-1-(1-methylpiperidin-4-yl)-1H-pyrazolo[3,4-b]pyrazin-3-amine] | > 20
14 | CN1CCC(n2nc(NCc3nc4cc(F)c(F)cc4[nH]3)c3ncc(C4CC4)nc32)CC1 [Example 30, 6-cyclopropyl-N-[(5,6-difluoro-1H-benzimidazol-2-yl)methyl]-1-(1-methylpiperidin-4-yl)-1H-pyrazolo[3,4-b]pyrazin-3-amine] | > 20
15 | COCCC(C)n1nc(NCc2nc3ccccc3[nH]2)c2ncc(C3CC3)nc21 (racemic) [Example 57, (±)-N-[(1H-benzimidazol-2-yl)methyl]-6-cyclopropyl-1-(4-methoxybutan-2-yl)-1H-pyrazolo[3,4-b]pyrazin-3-amine] | > 20
16 | Cn1nc(NCc2nc3ccccc3[nH]2)c2ncc(C3CC3)nc21 [Example 15, N-[(1H-benzimidazol-2-yl)methyl]-6-cyclopropyl-1-methyl-1H-pyrazolo[3,4-b]pyrazin-3-amine] | > 20

The remaining lines, values ahead:

Row | IC50 [µM] | Compound
17 | > 20 | CN1CCC(n2nc(NCc3nc4c(F)c(F)ccc4[nH]3)c3ncc(C4CC4)nc32)CC1 [Example 9, 6-cyclopropyl-N-[(4,5-difluoro-1H-benzimidazol-2-yl)methyl]-1-(1-methylpiperidin-4-yl)-1H-pyrazolo[3,4-b]pyrazin-3-amine]
18 | > 20 | CC(CCN(C)C)n1nc(NCc2nc3ccccc3[nH]2)c2ncc(C3CC3)nc21 (racemic) [Example 62, (±)-N-[(1H-benzimidazol-2-yl)methyl]-6-cyclopropyl-1-[4-(dimethylamino)butan-2-yl]-1H-pyrazolo[3,4-b]pyrazin-3-amine]
19 | > 20 | CN1CCC(n2nc(NCc3nc4ccccc4[nH]3)c3ncc(C4CC4)nc32)C1 (single isomer, unassigned) [Example 79, (−) or (+)-N-[(1H-benzimidazol-2-yl)methyl]-6-cyclopropyl-1-(1-methylpyrrolidin-3-yl)-1H-pyrazolo[3,4-b]pyrazin-3-amine]
20 | > 20 | c1ccc2[nH]c(CNc3nn(C4CCOC4)c4nc(C5CC5)cnc34)nc2c1 (single isomer, unassigned) [Example 17, (+) or (−)-N-[(1H-benzimidazol-2-yl)methyl]-6-cyclopropyl-1-(oxolan-3-yl)-1H-pyrazolo[3,4-b]pyrazin-3-amine]
21 | > 20 | Cc1cccc2[nH]c(CNc3nn(C4CCOCC4)c4nc(C5CC5)cnc34)nc12 [Example 33, 6-cyclopropyl-N-[(4-methyl-1H-benzimidazol-2-yl)methyl]-1-(oxan-4-yl)-1H-pyrazolo[3,4-b]pyrazin-3-amine]
22 | > 20 | CN1CCC(n2nc(NCc3nc4cc(SC(F)(F)F)ccc4[nH]3)c3ncc(C4CC4)nc32)CC1 [Example 27, 6-cyclopropyl-1-(1-methylpiperidin-4-yl)-N-({5-[(trifluoromethyl)sulfanyl]-1H-benzimidazol-2-yl}methyl)-1H-pyrazolo[3,4-b]pyrazin-3-amine]
23 | > 20 | CC(C)n1nc(NCc2nc3ccccc3[nH]2)c2ncc(C3CC3)nc21 [Example 14, N-[(1H-benzimidazol-2-yl)methyl]-6-cyclopropyl-1-(propan-2-yl)-1H-pyrazolo[3,4-b]pyrazin-3-amine]
24 | > 20 | CC(CCN(C)C)n1nc(NCc2nc3ccccc3[nH]2)c2ncc(C3CC3)nc21 (single isomer, unassigned) [Example 63, (+) or (−)-N-[(1H-benzimidazol-2-yl)methyl]-6-cyclopropyl-1-[4-(dimethylamino)butan-2-yl]-1H-pyrazolo[3,4-b]pyrazin-3-amine]
25 | 16.4 | Fc1cccc2[nH]c(CNc3nn(C4CCOCC4)c4nc(C5CC5)cnc34)nc12 [Example 23, 6-cyclopropyl-N-[(4-fluoro-1H-benzimidazol-2-yl)methyl]-1-(oxan-4-yl)-1H-pyrazolo[3,4-b]pyrazin-3-amine]
